Reference: US8895592B2, “Compounds as cannabinoid receptor ligands” (priority 2008, dated 2014)

Legend:
[1] = biological target: T1, rat CB2 receptors (Rattus norvegicus (Rat), UniProt Q9QZN9); assay: rat CB2 radioligand binding assay ([3H]CP 55,940 competition); conditions: HEK293 membranes, 0.5 nM [3H]CP 55,940
Procedure: HEK293 cells stably expressing rat CB2 receptors were grown until a confluent monolayer was formed. Briefly, the cells were harvested and homogenized in TE buffer (50 mM Tris-HCl, 1 mM MgCl2, and 1 mM EDTA) using a polytron for 2×10 second bursts in the presence of protease inhibitors, followed by centrifugation at 45,000×g for 20 minutes. The final membrane pellet was re-homogenized in storage buffer (50 mM Tris-HCl, 1 mM MgCl2, and 1 mM EDTA and 10% sucrose) and frozen at −78° C. until used. Saturation binding reactions were initiated by the addition of membrane preparation (protein concentration of 20 μg/well for rat CB2) into wells of a deep well plate containing [^3H]CP 55,940 (120 Ci/mmol, a nonselective CB agonist commercially available from Tocris) in assay buffer (50 mM Tris, 2.5 mM EDTA, 5 mM MgCl2, and 0.5 mg/mL fatty acid free BSA, pH 7.4). After 45 min incubation at 30° C., binding reaction was terminated by the addition of 300 μl/well of cold assay buffer followed by rapid vacuum filtration through a UniFilter-96 GF/C filter plates (pre-soaked in 1 mg/mL BSA for 2 hours). The bound activity was counted in a TopCount using Microscint-20. Saturation experiments were conducted with twelve concentrations of [^3H]CP 55,940 ranging from 0.01 to 8 nM. Competition experiments were conducted with 0.5 nM [^3H]CP 55,940 and five concentrations of displacing ligands selected from the range of 0.01 nM to 10 μM. The addition of 10 μM unlabeled CP 55,940 (Tocris, Ellisville, Mo.) was used to assess nonspecific binding.

[2] = biological target: human CB2 receptors (Homo sapiens (Human), UniProt P34972); assay: human CB2 radioligand binding assay ([3H]CP 55,940 competition); conditions: HEK293 membranes, 0.5 nM [3H]CP 55,940
human CB2 receptors, sequence (P34972 whole entry): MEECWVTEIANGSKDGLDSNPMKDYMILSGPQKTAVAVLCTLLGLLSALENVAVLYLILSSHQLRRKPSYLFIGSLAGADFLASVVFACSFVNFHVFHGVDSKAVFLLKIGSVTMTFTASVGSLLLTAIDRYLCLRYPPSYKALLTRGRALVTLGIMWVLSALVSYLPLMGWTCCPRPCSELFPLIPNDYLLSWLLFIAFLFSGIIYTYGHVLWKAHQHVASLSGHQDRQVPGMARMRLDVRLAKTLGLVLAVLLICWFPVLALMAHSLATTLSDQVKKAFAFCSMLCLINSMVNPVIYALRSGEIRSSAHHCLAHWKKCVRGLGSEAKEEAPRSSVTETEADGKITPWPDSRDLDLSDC
Procedure: HEK293 cells stably expressing human CB2 receptors were grown until a confluent monolayer was formed. Briefly, the cells were harvested and homogenized in TE buffer (50 mM Tris-HCl, 1 mM MgCl2, and 1 mM EDTA) using a polytron for 2×10 second bursts in the presence of protease inhibitors, followed by centrifugation at 45,000×g for 20 minutes. The final membrane pellet was re-homogenized in storage buffer (50 mM Tris-HCl, 1 mM MgCl2, and 1 mM EDTA and 10% sucrose) and frozen at −78° C. until used. Saturation binding reactions were initiated by the addition of membrane preparation (protein concentration of 5 μg/well for human CB2) into wells of a deep well plate containing [^3H]CP 55,940 (120 Ci/mmol, a nonselective CB agonist commercially available from Tocris) in assay buffer (50 mM Tris, 2.5 mM EDTA, 5 mM MgCl2, and 0.5 mg/mL fatty acid free BSA, pH 7.4). After 90 min incubation at 30° C., binding reaction was terminated by the addition of 300 μL/well of cold assay buffer followed by rapid vacuum filtration through a UniFilter-96 GF/C filter plates (pre-soaked in 1 mg/mL BSA for 2 hours). The bound activity was counted in a TopCount using Microscint-20. Saturation experiments were conducted with twelve concentrations of [^3H]CP 55,940 ranging from 0.01 to 8 nM. Competition experiments were conducted with 0.5 nM [^3H]CP 55,940 and five concentrations (0.01 nM to 10 μM) of displacing ligands. The addition of 10 μM unlabeled CP 55,940 (Tocris, Ellisville, Mo.) was used to assess nonspecific binding.

[3] = biological target: T1, rat CB2 receptors; assay: rat CB2 cyclase functional assay (HitHunter cAMP); format: cell-based; conditions: HEK cells, forskolin 18 μM
Procedure: The cyclase functional assays were performed using the HitHunter™ cAMP assay kit from DiscoveRx (Fremont, Calif.) according to vendor's protocol. Briefly, HEK cells expressing CB2 or CB1 receptors (rat or human) were detached using cell dissociation buffer (Invitrogen, Carlsbad, Calif.), dispersed and placed in suspension at 10,000 cells per well in 96 well plates prior to the assay. Cell suspensions were incubated at 37° C. for 20 min with variable concentrations of test ligands and or 10 μM CP 55,940-positive control in the presence of a fixed concentration of forskolin (18 μM for rat CB2 and 37 μM for rat CB1) in Dulbescco's phosphate-buffered saline (Invitrogen, Carlsbad, Calif.) supplemented with bovine serum albumin (0.01% final concentration). The reactions were terminated by the addition of lysis buffer and the luminescence was detected following the procedure according to the manufacturer's instructions. EC50 values were calculated using sigmoidal dose-response curve fitting from Prism (GraphPad).

T1 sequence (Q9QZN9 whole entry): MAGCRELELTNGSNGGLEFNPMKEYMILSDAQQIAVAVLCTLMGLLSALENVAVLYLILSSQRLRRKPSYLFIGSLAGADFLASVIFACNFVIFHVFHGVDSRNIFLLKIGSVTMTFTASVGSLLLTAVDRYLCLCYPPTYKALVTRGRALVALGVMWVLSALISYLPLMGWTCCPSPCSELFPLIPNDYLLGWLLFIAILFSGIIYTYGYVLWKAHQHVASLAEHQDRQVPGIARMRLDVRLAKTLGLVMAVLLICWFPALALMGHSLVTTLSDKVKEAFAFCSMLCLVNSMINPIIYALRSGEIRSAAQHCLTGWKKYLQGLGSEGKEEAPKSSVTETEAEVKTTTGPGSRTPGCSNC

Structure (SMILES) | Ki [1] | Ki [2] | EC50 [3]
CC(C)Cn1cc(C(C)(C)C)s/c1=N\C(=O)c1cc(Br)ccc1OC[C@@H]1CCCN1C [Example 1, 5-bromo-N-[(2Z)-5-tert-butyl-3-isobutyl-1,3-thiazol-2(3H)-ylidene]-2-{[(2S)-1-methylpyrrolidin-2-yl]methoxy}benzamide] | 19 nM | 27 nM | 0.75 nM
CCCCn1cc(C(C)(C)C)s/c1=N\C(=O)c1cc(Cl)ccc1OCC(N)=O [Example 2, 2-(2-amino-2-oxoethoxy)-N-[(2Z)-3-butyl-5-tert-butyl-1,3-thiazol-2(3H)-ylidene]-5-chlorobenzamide] | 1.1 nM | 3.1 nM | 0.07 nM
CC(C)Cn1cc(C(C)(C)C)s/c1=N\C(=O)c1cc(C(F)(F)F)ccc1OCc1ccco1 [Example 3, N-[(2Z)-5-tert-butyl-3-isobutyl-1,3-thiazol-2(3H)-ylidene]-2-(2-furylmethoxy)-5-(trifluoromethyl)benzamide] | 8.7 nM | 7.4 nM | 1.9 nM
CC(C)Cn1cc(C(C)(C)C)s/c1=N\C(=O)c1cc(Cl)ccc1OCC1CCO1 (stereo not drawn) [Example 4, N-[(2Z)-5-tert-butyl-3-isobutyl-1,3-thiazol-2(3H)-ylidene]-5-chloro-2-(oxetan-2-ylmethoxy)benzamide] | 5.2 nM | 9 nM | 0.23 nM
CC(C)Cn1cc(C(C)(C)C)s/c1=N\C(=O)c1cc(C(F)(F)F)ccc1OC[C@@H]1CCCN1C [Example 5, N-[(2Z)-5-tert-butyl-3-isobutyl-1,3-thiazol-2(3H)-ylidene]-2-{[(2S)-1-methylpyrrolidin-2-yl]methoxy}-5-(trifluoromethyl)benzamide] | 18 nM | 39 nM | 1.2 nM
CC(C)Cn1cc(C(C)(C)C)s/c1=N\C(=O)c1cc(C(F)(F)F)ccc1OCCN1CCCC1 [Example 7, N-[(2Z)-5-tert-butyl-3-isobutyl-1,3-thiazol-2(3H)-ylidene]-2-(2-pyrrolidin-1-ylethoxy)-5-(trifluoromethyl)benzamide] | 12 nM | 32 nM | 1.3 nM
CC(C)Cn1cc(C(C)(C)C)s/c1=N\C(=O)c1cc(C(F)(F)F)ccc1OCC1CCOC1 (stereo not drawn) [Example 8, N-[(2Z)-5-tert-butyl-3-isobutyl-1,3-thiazol-2(3H)-ylidene]-2-(tetrahydrofuran-3-ylmethoxy)-5-(trifluoromethyl)benzamide] | 2.4 nM | 5 nM | 0.058 nM
CCCCn1cc(C(C)(C)C)s/c1=N\C(=O)c1cc(C(F)(F)F)ccc1OC[C@@H]1CCCN1C [Example 9, N-[(2Z)-3-butyl-5-tert-butyl-1,3-thiazol-2(3H)-ylidene]-2-{[(2S)-1-methylpyrrolidin-2-yl]methoxy}-5-(trifluoromethyl)benzamide] | 7.7 nM | 9.2 nM | 0.97 nM
CN1CCC[C@H]1COc1ccc(C(F)(F)F)cc1C(=O)/N=c1\sc(C(C)(C)C)cn1CC1(O)CCC1 [Example 11, N-[(2Z)-5-tert-butyl-3-[(1-hydroxycyclobutyl)methyl]-1,3-thiazol-2(3H)-ylidene]-2-{[(2S)-1-methylpyrrolidin-2-yl]methoxy}-5-(trifluoromethyl)benzamide] | 32 nM | 95 nM | 0.41 nM
CC(C)Cn1cc(C(C)(C)C)s/c1=N\C(=O)c1cc(C(F)(F)F)ccc1OC[C@@H]1CCN1C [Example 12, N-[(2Z)-5-tert-butyl-3-isobutyl-1,3-thiazol-2(3H)-ylidene]-2-{[(2S)-1-methylazetidin-2-yl]methoxy}-5-(trifluoromethyl)benzamide] | 26 nM | 37 nM | 3.5 nM
CC(C)Cn1cc(C(C)(C)C)s/c1=N\C(=O)c1cc(C(F)(F)F)ccc1OC[C@@H]1CCN1 [Example 14, 2-[(2S)-azetidin-2-ylmethoxy]-N-[(2Z)-5-tert-butyl-3-isobutyl-1,3-thiazol-2(3H)-ylidene]-5-(trifluoromethyl)benzamide] | 13 nM | 44 nM | 0.36 nM
CC(=O)OCCOc1ccc(C(F)(F)F)cc1C(=O)/N=c1\sc(C(C)(C)C)cn1CC(C)C [Example 18, 2-[2-({[(2Z)-5-tert-butyl-3-isobutyl-1,3-thiazol-2(3H)-ylidene]amino}carbonyl)-4-(trifluoromethyl)phenoxy]ethyl acetate] | 1.4 nM | 16 nM | 0.19 nM
CC(C)Cn1cc(C(C)(C)C)s/c1=N\C(=O)c1cc(C(F)(F)F)ccc1OCCO [Example 19, N-[(2Z)-5-tert-butyl-3-isobutyl-1,3-thiazol-2(3H)-ylidene]-2-(2-hydroxyethoxy)-5-(trifluoromethyl)benzamide] | 0.15 nM | 0.73 nM | 0.13 nM
CCCCn1/c(=N/C(=O)c2cc(C(F)(F)F)ccc2OCC(C)(C)O)sc2ccncc21 [Example 21, N-[(2Z)-3-butyl[1,3]thiazolo[4,5-c]pyridin-2(3H)-ylidene]-2-(2-hydroxy-2-methylpropoxy)-5-(trifluoromethyl)benzamide] | 9.3 nM | 5.4 nM | 0.58 nM
CCCCn1/c(=N/C(=O)c2cc(C(F)(F)F)ccc2OCCNC(C)=O)sc2ccncc21 [Example 25, 2-[2-(acetylamino)ethoxy]-N-[(2Z)-3-butyl[1,3]thiazolo[4,5-c]pyridin-2(3H)-ylidene]-5-(trifluoromethyl)benzamide] | 3.6 nM | 1.5 nM | 0.11 nM
CCCCn1/c(=N/C(=O)c2cc(C(F)(F)F)ccc2OC[C@H](C)O)sc2ccncc21 [Example 29, N-[(2Z)-3-butyl[1,3]thiazolo[4,5-c]pyridin-2(3H)-ylidene]-2-{[(2S)-2-hydroxypropyl]oxy}-5-(trifluoromethyl)benzamide] | 2.5 nM | 2 nM | 1.4 nM
